Measurements taken from US20160296499A1, “Spiroindoline Antiparasitic Derivatives” (ZOETIS SERVICES LLC, priority 2013, published 2016).
Where two headings read alike, the source gives them in different places.

Key:
Haemonchus contortus L3 = assay: Haemonchus contortus, Larvae Stage 3 (HcL3) In Vitro Assay
[1] = biological target: T1, bovine vesicular acetylcholine transporter (VAChT) (Bos taurus, UniProt E1BK36); assay: Radioligand Binding Assay; details: for Ki: Bovine binding Ki, CHO-K1 membranes with recombinant bovine VAChT, [3H]Compound X6 0.3 nM
T1 sequence (E1BK36 1-524): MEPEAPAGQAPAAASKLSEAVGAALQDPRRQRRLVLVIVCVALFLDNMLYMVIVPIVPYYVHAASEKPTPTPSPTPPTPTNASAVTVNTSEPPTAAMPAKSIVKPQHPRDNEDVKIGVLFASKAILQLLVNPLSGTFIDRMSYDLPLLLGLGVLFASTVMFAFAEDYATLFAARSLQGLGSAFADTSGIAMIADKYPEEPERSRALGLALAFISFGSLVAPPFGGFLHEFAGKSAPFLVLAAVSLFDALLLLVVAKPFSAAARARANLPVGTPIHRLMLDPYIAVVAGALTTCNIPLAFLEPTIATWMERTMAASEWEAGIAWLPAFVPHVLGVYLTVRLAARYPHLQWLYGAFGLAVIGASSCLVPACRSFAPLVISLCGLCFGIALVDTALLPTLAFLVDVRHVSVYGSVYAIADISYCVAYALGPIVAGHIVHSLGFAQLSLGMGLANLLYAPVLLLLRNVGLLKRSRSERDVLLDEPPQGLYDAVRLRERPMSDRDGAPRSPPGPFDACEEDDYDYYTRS

[2] = test system: Dirofilaria immitis microfilariae; assay: Dirofilaria immitis, Microfilariae (DiMF) In Vitro Assay
[3] = Haemonchus contortus, 96 h, read-out: HcL3 MEC, Minimal Effective Concentration whereby worm motility is inhibited by approximately 70%, 37° C., tested 0.001-100 μM
[4] = Dirofilaria immitis, 72 h, read-out: Di MF, MEC, decrease in microfilariae motility by visual assessment, curve starting at 100 μM
[5] = Haemonchus contortus, 96 hours, 37° C., read-out: HcL3 MEC
[6] = Dirofilaria immitis, 72 hours, read-out: Di MF

O=C(NCc1ccnc(Cl)c1)N1CC2(CCN(C/C=C/c3ccc(Cl)c(Cl)c3)CC2)c2c(Cl)cccc21 [Example 131, (E)-4-chloro-N-((2-chloropyridin-4-yl)methyl)-1′-(3-(3,4-dichlorophenyl)allyl) spiro[indoline-3,4′-piperidine]-1-carboxamide]
minimal effective concentration (Haemonchus contortus L3; [3]): 3.3 µM | Ki [1]: 184 nM | minimal effective concentration [2, 4]: 10 µM

O=C(NCc1ccnc(F)c1)N1CC2(CCN(C/C=C/c3ccc(F)cc3)CC2)c2cc(Br)ccc21 [Example 106, 5-bromo-1′-[(E)-3-(4-fluorophenyl)allyl]-N-[(2-fluoro-4-pyridyl)methyl]spiro[indoline-3,4′-piperidine]-1-carboxamide]
minimal effective concentration (Haemonchus contortus L3; [3]): 3.3 µM | Ki [1]: 72.7 nM | minimal effective concentration [2, 4]: 10 µM

O=C(NCc1ccnc(Cl)c1)N1CC2(CCN(C/C=C/c3ccc(Cl)c(Cl)c3)CC2)c2cc3c(cc21)CCC3 [Example 12, (E)-N-((2-chloropyridin-4-yl)methyl)-1′-(3-(3,4-dichlorophenyl)allyl)-2,5,6,7-tetrahydro-1H-spiro[cyclopenta[f]indole-3,4′-piperidine]-1-carboxamide]
minimal effective concentration (Haemonchus contortus L3; [5]): 2.2 µM | Ki [1]: 56.3 nM | minimal effective concentration [2, 6]: 10 µM

O=C(NCc1ccnc(Cl)c1)N1CC2(CCN(C/C=C/c3ccc(Cl)cc3)CC2)c2cc(OC(F)(F)F)ccc21 [Example 185, (E)-1′-(3-(4-chlorophenyl)allyl)-N-((2-chloropyridin-4-yl)methyl)-5-(trifluoromethoxy)spiro[indoline-3,4′-piperidine]-1-carboxamide]
minimal effective concentration (Haemonchus contortus L3; Minimal Effective Concentration whereby worm motility is inhibited by approximately 70%, 96 hours, 37° C., tested 0.001-100 μM, read-out: HcL3 MEC): 3.3 µM | Ki [1]: 283 nM | minimal effective concentration ([2]; MEC, decrease in microfilariae motility by visual assessment, 72 hours, curve starting at 100 μM, read-out: Di MF): 10.0 µM

O=C(NCc1ccnnc1)N1CC2(CCN(C/C=C/c3ccc(Cl)c(Cl)c3)CC2)c2c1ccc1scnc21 [Example 37, (E)-1-(3-(3,4-dichlorophenyl)allyl)-N-(pyridazin-4-ylmethyl)spiro[piperidine-4,8′-thiazolo[4,5-e]indole]-6′(7′H)-carboxamide]
minimal effective concentration (Haemonchus contortus L3; [3]): 100 µM | Ki [1]: 1210 nM | minimal effective concentration [2, 4]: 6.9 µM

O=C(NCc1ccnc(Cl)c1)N1CC2(CCN(C/C=C/c3ccc(Cl)c(Cl)c3)CC2)c2cc(C(F)(F)F)ccc21 [Example 133, (E)-N-((2-chloropyridin-4-yl)methyl)-1′-(3-(3,4-dichlorophenyl)allyl)-5-(trifluoromethyl)spiro[indoline-3,4′-piperidine]-1-carboxamide]
minimal effective concentration (Haemonchus contortus L3; [5]): 3.3 µM | Ki [1]: 546 nM | minimal effective concentration [2, 6]: 7.6 µM

COc1ccc(/C=C/CN2CCC3(CC2)CN(C(=O)NCc2ccnc(Cl)c2)c2ccc(F)cc23)cc1 [Compound X6, reference compound]
Kd [1]: 0.6 nM

CN(Cc1ccnc(Cl)c1)C(=O)N1CC2(CCN(C/C=C/c3ccc(Cl)cc3)CC2)c2cc(Cl)ccc21 [Example 188, (E)-5-chloro-1′-(3-(4-chlorophenyl)allyl)-N-((2-chloropyridin-4-yl)methyl)-N-methylspiro[indoline-3,4′-piperidine]-1-carboxamide]
minimal effective concentration (Haemonchus contortus L3; [3]): 2 µM | Ki [1]: 172 nM

O=C(NCc1ccnc(Cl)c1)N1CC2(CCN(C/C=C/c3ccc(Cl)c(Cl)c3)CC2)c2cc3c(cc21)COC3 [Example 1, (E)-N-((2-chloropyridin-4-yl)methyl)-1′-(3-(3,4-dichlorophenyl)allyl)-5,7-dihydrospiro[furo[3,4-f]indole-3,4′-piperidine]-1(2H)-carboxamide]
minimal effective concentration (Haemonchus contortus L3; [3]): 1 µM | Ki [1]: 70 nM

COc1nc2ccccc2cc1CN1CCC2(CC1)CN(C(=O)NCc1ccnc(Cl)c1)c1ccc(Cl)cc12 [Example 134, 5-chloro-N-((2-chloropyridin-4-yl)methyl)-1′-((2-methoxyquinolin-3-yl)methyl)spiro[indoline-3,4′-piperidine]-1-carboxamide]
minimal effective concentration (Haemonchus contortus L3; [5]): 2 µM | Ki [1]: 34.9 nM
